Data published in patent US10065970B2 (Genentech, Inc., priority 2015, dated 2018).

Molecular target: PI3Kα (alpha) (Homo sapiens (Human), UniProt P42336)
Assay: p110α (alpha) PI3K Binding Assay (ADP-Glo lipid kinase reaction)
Type: biochemical
Conditions: PI3K alpha 0.2 nM, ATP 40 μM, PIP2:3PS 50 μM, 120 min, room temperature; Ki by Morrison Equation; read-out: PI3Kα-(alpha) ATP (Ki) micromolar
Outline: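 Enzyme with PIP2:3PS lipid substrate and ATP/MgCl2 in 50 mM HEPES, 50 mM NaCl, 3 mM MgCl2, 0.01% BSA, 1% DMSO, 120 min at room temperature. ADP formed detected by ADP-Glo luminescence. Ki from 10-point dose-response curves via the Morrison equation.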

PI3Kα (alpha), sequence (P42336 whole entry): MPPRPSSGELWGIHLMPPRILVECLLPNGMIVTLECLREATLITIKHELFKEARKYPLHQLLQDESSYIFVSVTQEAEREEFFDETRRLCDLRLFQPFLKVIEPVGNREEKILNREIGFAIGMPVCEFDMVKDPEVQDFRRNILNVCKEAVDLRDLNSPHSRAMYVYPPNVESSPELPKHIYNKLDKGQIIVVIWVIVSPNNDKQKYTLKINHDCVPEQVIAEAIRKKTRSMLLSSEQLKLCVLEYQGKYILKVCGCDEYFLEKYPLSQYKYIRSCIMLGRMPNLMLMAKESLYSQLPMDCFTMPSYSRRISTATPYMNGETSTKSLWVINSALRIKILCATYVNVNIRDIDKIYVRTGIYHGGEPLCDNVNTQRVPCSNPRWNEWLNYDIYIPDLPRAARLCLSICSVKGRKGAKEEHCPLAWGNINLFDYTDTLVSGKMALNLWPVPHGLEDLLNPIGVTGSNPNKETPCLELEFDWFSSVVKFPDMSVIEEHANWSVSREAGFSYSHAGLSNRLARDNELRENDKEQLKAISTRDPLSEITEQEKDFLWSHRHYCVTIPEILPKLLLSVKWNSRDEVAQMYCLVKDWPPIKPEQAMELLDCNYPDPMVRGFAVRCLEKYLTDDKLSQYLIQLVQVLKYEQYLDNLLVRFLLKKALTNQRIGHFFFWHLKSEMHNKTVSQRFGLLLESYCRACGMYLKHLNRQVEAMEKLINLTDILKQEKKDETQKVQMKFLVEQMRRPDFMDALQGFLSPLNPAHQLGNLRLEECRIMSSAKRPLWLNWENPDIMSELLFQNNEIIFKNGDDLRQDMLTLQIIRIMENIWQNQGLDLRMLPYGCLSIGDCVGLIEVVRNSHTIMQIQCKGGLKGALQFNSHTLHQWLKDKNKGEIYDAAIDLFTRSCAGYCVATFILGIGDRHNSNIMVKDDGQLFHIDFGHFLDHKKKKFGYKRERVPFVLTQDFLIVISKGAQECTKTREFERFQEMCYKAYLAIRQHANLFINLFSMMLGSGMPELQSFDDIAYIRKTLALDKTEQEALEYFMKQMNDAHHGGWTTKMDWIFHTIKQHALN
PI3Kα (alpha), sequence (P27986 whole entry partner): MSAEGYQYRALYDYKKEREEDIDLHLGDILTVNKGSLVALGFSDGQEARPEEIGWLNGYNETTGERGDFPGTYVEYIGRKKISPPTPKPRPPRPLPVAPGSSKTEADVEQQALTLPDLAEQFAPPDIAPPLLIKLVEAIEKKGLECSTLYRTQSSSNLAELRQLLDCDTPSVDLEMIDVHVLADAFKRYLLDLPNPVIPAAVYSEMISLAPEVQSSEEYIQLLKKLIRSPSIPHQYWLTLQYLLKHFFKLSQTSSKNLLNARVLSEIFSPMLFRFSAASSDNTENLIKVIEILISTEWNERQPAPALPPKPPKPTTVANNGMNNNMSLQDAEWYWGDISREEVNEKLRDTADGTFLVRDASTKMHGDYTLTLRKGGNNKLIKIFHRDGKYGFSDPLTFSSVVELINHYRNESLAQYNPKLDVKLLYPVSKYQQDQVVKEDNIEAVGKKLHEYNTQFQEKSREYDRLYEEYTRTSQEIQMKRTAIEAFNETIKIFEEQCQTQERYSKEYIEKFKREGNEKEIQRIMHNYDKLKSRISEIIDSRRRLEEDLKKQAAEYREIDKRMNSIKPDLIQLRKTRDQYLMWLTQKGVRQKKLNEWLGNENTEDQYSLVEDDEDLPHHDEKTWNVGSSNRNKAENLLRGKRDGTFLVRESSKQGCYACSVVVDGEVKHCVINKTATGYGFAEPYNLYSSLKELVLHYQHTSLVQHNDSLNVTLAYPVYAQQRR

`NC(=O)[C@@H](Nc1cc2c3c(c1)nc(-c1cn[nH]c1)n3CCCO2)C1CC1` [Example 212, (S)-2-((1-(1H-Pyrazol-4-yl)-8,9-dihydro-7H-6-oxa-2,9a-diazabenzo[cd]azulen-4-yl)amino)-2-cyclopropylacetamide] and `NC(=O)c1ccc(-c2nc3cc(N[C@H](C(N)=O)C4CC4)cc4c3n2CCCO4)cn1` [Example 191, (S)-5-(4-((2-Amino-1-cyclopropyl-2-oxoethyl)amino)-8,9-dihydro-7H-6-oxa-2,9a-diazabenzo[cd]azulen-1-yl)picolinamide] are within 1.5-fold of each other in Ki: 148 nM for the first, 105 nM for the second.

`NC(=O)[C@@H](Nc1cc2c3c(c1)nc(N1CCOCC1)n3CCCO2)C1CC1` [Example 141, (S)-2-Cyclopropyl-2-((1-morpholino-8,9-dihydro-7H-6-oxa-2,9a-diazabenzo[cd]azulen-4-yl)amino)acetamide] and `NC(=O)[C@@H](Nc1cc2c3c(c1)nc(N1CCCCC1)n3CCCO2)C1CC1` [Example 127, (S)-2-Cyclopropyl-2-(1-piperidin-1-yl-8,9-dihydro-7H-6-oxa-2,9a-diazabenzo[cd]azulen-4-ylamino)acetamide] are within 1.5-fold of each other in Ki: 740 nM for the first, 719 nM for the second.

Compared with `Nc1nc2cc(-c3nc4cc(N[C@H]5C[C@H](F)C5)cc5c4n3CCCO5)ccc2o1` (single isomer, unassigned) [Example 202, 1-(2-Aminobenzo[d]oxazol-5-yl)-N-((1r,3r)-3-fluorocyclobutyl)-8,9-dihydro-7H-6-oxa-2,9a-diazabenzo[cd]azulen-4-amine], `NC(=O)[C@@H](Nc1cc2c3c(c1)nc(-c1ccc4nc(N)oc4c1)n3CCCO2)C1CC1` [Example 207, (S)-2-((1-(2-Aminobenzo[d]oxazol-6-yl)-8,9-dihydro-7H-6-oxa-2,9a-diazabenzo[cd]azulen-4-yl)amino)-2-cyclopropylacetamide] is 1.8-fold higher in Ki: 0.563 nM for the first, 0.988 nM for the second.

Going from `C[C@H](Oc1cc2c3c(c1)nc(-c1ccc4oc(N)nc4c1)n3CCCCO2)C(=O)O` [Example 297, (S)-2-((1-(2-Aminobenzo[d]oxazol-5-yl)-7,8,9,10-tetrahydro-6-oxa-2,10a-diazacycloocta[cd]inden-4-yl)oxy)propanoic acid] to `C[C@H](Oc1cc2c3c(c1)nc(-c1ccc4oc(N)nc4c1)n3CCCCO2)C(N)=O` [Example 204, (S)-2-((1-(2-Aminobenzo[d]oxazol-5-yl)-7,8,9,10-tetrahydro-6-oxa-2,10a-diazacycloocta[cd]inden-4-yl)oxy)propanamide], the Ki falls from 2.23 nM to < 0.02 nM. The second binds more tightly here.

First: NC(=O)[C@@H]1CCCN1c1cc2c3c(c1)nc(-c1ccc(-c4cn[nH]c4)nc1)n3CCCO2 [Example 223, (S)-1-(1-(6-(1H-Pyrazol-4-yl)pyridin-3-yl)-8,9-dihydro-7H-6-oxa-2,9a-diazabenzo[cd]azulen-4-yl)pyrrolidine-2-carboxamide]
Second: NC(=O)[C@@H]1CCCN1c1cc2c3c(c1)nc(-c1ccc(-c4nc[nH]n4)cc1)n3CCCO2 [Example 221, (S)-1-(1-(4-(1H-1,2,4-Triazol-3-yl)phenyl)-8,9-dihydro-7H-6-oxa-2,9a-diazabenzo[cd]azulen-4-yl)pyrrolidine-2-carboxamide]
The Ki of the first is 310-fold higher: 74.6 nM for the first, 0.237 nM for the second.

First: NC(=O)[C@@H](Oc1cc2c3c(c1)nc(-c1ccc4nc(N)sc4c1)n3CCCCO2)C1CC1 (single isomer, unassigned) [Example 281]
Second: NC(=O)[C@H](Oc1cc2c3c(c1)nc(-c1ccc4nc(N)sc4c1)n3CCCCO2)C1CC1 (single isomer, unassigned) [Example 282]
The Ki of the first is 200-fold lower: 0.027 nM for the first, 5.53 nM for the second.

Going from `NC(=O)[C@@H](Nc1cc2c3c(c1)nc(-c1cc(Cl)c4oc(N)nc4c1)n3CCCO2)C1CC1` [Example 209, (S)-2-((1-(2-Amino-7-chlorobenzo[d]oxazol-5-yl)-8,9-dihydro-7H-6-oxa-2,9a-diazabenzo[cd]azulen-4-yl)amino)-2-cyclopropylacetamide] to `NC(=O)[C@@H](Nc1cc2c3c(c1)nc(-c1ccc4nc(N)sc4c1)n3CCCO2)C1CC1` [Example 170, (S)-2-((1-(2-Aminobenzo[d]thiazol-6-yl)-8,9-dihydro-7H-6-oxa-2,9a-diazabenzo[cd]azulen-4-yl)amino)-2-cyclopropylacetamide], the Ki rises from 0.095 nM to 0.614 nM (6.5-fold).

Compared with `NC(=O)[C@@H](Nc1cc2c3c(c1)nc(-c1cccc(OC(F)F)c1)n3CCCO2)C1CC1` [Example 143, (S)-2-Cyclopropyl-2-((1-(3-(difluoromethoxy)phenyl)-8,9-dihydro-7H-6-oxa-2,9a-diazabenzo[cd]azulen-4-yl)amino)acetamide], `N#Cc1cccc(-c2nc3cc(N[C@H](C(N)=O)C4CC4)cc4c3n2CCCO4)c1` [Example 118, (S)-2-((1-(3-Cyanophenyl)-8,9-dihydro-7H-6-oxa-2,9a-diazabenzo[cd]azulen-4-yl)amino)-2-cyclopropylacetamide] is 3-fold higher in Ki: 187 nM for the first, 561 nM for the second. The first binds more tightly here.

First: NC(=O)[C@@H]1CCCN1c1cc2c3c(c1)nc(-c1ccc4c(=O)[nH]oc4c1)n3CCCO2 [Example 237, (S)-1-(1-(3-Oxo-2,3-dihydrobenzo[d]isoxazol-6-yl)-8,9-dihydro-7H-6-oxa-2,9a-diazabenzo[cd]azulen-4-yl)pyrrolidine-2-carb oxamide]
Second: Cc1nc2cc(-c3nc4cc(N5CCCC5C(N)=O)cc5c4n3CCCO5)ccc2o1 (stereo not drawn) [Example 103, 1-(1-(2-methylbenzo[d]oxazol-5-yl)-8,9-dihydro-7H-6-oxa-2,9a-diazabenzo[cd]azulen-4-yl)pyrrolidine-2-carboxamide]
The Ki of the first is 8.5-fold higher: 137 nM for the first, 16.2 nM for the second.

First: NC(=O)[C@@H](Nc1cc2c3c(c1)nc(-c1ccnc4c1OCO4)n3CCCO2)C1CC1 [Example 195, (S)-2-((1-([1,3]Dioxolo[4,5-b]pyridin-7-yl)-8,9-dihydro-7H-6-oxa-2,9a-diazabenzo[cd]azulen-4-yl)amino)-2-cyclopropylacetamide]
Second: NC(=O)[C@@H](Nc1cc2c3c(c1)nc(-c1ccc4c(c1)OCO4)n3CCCO2)C1CC1 [Example 114, (S)-2-((1-(Benzo[d][1,3]dioxol-5-yl)-8,9-dihydro-7H-6-oxa-2,9a-diazabenzo[cd]azulen-4-yl)amino)-2-cyclopropylacetamide]
The Ki of the first is 8.3-fold higher: 194 nM for the first, 23.3 nM for the second. The second binds more tightly here.

Compared with `CO[C@@H]1CCN(c2cc3c4c(c2)nc(-c2ccc5oc(N)nc5c2)n4CCCCO3)[C@@H]1C(N)=O` [Example 310, (2S,3R)-1-(1-(2-Aminobenzo[d]oxazol-5-yl)-7,8,9,10-tetrahydro-6-oxa-2,10a-diazacycloocta[cd]inden-4-yl)-3-methoxypyrrolidine-2-carboxamide], `C[C@H]1CCN(c2cc3c4c(c2)nc(-c2ccc5oc(N)nc5c2)n4CCCCO3)[C@@H]1C(N)=O` [Example 309, (2S,3S)-1-(1-(2-Aminobenzo[d]oxazol-5-yl)-7,8,9,10-tetrahydro-6-oxa-2,10a-diazacycloocta[cd]inden-4-yl)-3-methylpyrrolidine-2-carboxamide] is 4.3-fold lower in Ki: 0.171 nM for the first, 0.04 nM for the second. The second binds more tightly here.

First: C[C@H](Nc1cc2c3c(c1)nc(-c1ccccc1)n3CCCO2)C(N)=O [Example 106, (S)-2-((1-phenyl-8,9-dihydro-7H-6-oxa-2,9a-diazabenzo[cd]azulen-4-yl)amino)propanamide]
Second: NC(=O)[C@@H](Nc1cc2c3c(c1)nc(-c1ccc4nc(Cl)nn4c1)n3CCCO2)C1CC1 [Example 197, (S)-2-((1-(2-Chloro-[1,2,4]triazolo[1,5-a]pyridin-6-yl)-8,9-dihydro-7H-6-oxa-2,9a-diazabenzo[cd]azulen-4-yl)amino)-2-cyclopropylacetamide]
The Ki of the first is 4.8-fold higher: 130 nM for the first, 27.2 nM for the second.

First: NC(=O)[C@@H]1COCCN1c1cc2c3c(c1)nc(-c1ccc4nc(N)sc4c1)n3CCCCO2 [Example 262, (S)-4-(1-(2-Aminobenzo[d]thiazol-6-yl)-7,8,9,10-tetrahydro-6-oxa-2,10a-diazacycloocta[cd]inden-4-yl)morpholine-3-carboxamide]
Second: NC(=O)[C@@H](Nc1cc2c3c(c1)nc(-c1ccc4sc(N)nc4c1)n3CCCCO2)C1CC1 [Example 246, (S)-2-((1-(2-Aminobenzo[d]thiazol-5-yl)-7,8,9,10-tetrahydro-6-oxa-2,10a-diazacycloocta[cd]inden-4-yl)amino)-2-cyclopropylacetamide]
The Ki of the first is higher: 1.95 nM for the first, < 0.02 nM for the second. The second binds more tightly here.

First: NC(=O)[C@@H](Nc1cc2c3c(c1)nc(-c1ccc4c(c1)NC(=O)CO4)n3CCCO2)C1CC1 [Example 131, (S)-2-Cyclopropyl-2-((1-(3-oxo-3,4-dihydro-2H-benzo[b][1,4]oxazin-6-yl)-8,9-dihydro-7H-6-oxa-2,9a-diazabenzo[cd]azulen-4-yl)amino)acetamide]
Second: N#CC1CCCN(c2nc3cc(NC(C(N)=O)C4CC4)cc4c3n2CCCO4)C1 [Example 174, (S)-2-[1-(3-Cyanopiperidin-1-yl)-8,9-dihydro-7H-6-oxa-2,9a-diazabenzo[cd]azulen-4-ylamino]-2-cyclopropylacetamide]
The Ki of the first is 3.1-fold higher: 821 nM for the first, 262 nM for the second. The second binds more tightly here.

First: OCc1cnc2cc(-c3nc4cc(Br)cc5c4n3CCCO5)ccc2n1 [Example 198, (6-(4-Bromo-8,9-dihydro-7H-6-oxa-2,9a-diazabenzo[cd]azulen-1-yl)quinoxalin-2-yl)methanol]
Second: C[C@@H](Oc1cc2c3c(c1)nc(-c1ccc4sc(N)nc4c1)n3CCCCO2)C(N)=O (single isomer, unassigned) [Example 275]
The Ki of the first is 900-fold higher: 677 nM for the first, 0.754 nM for the second.

`CC[C@@H](C(N)=O)n1cc(-c2cc3c4c(c2)nc(-c2ccc5oc(N)nc5n2)n4CCCCO3)cn1` (single isomer, unassigned) [Example 301] and `NC(=O)[C@@H]1CCCN1c1cc2c3c(nc(-c4ccc5oc(N)nc5c4)n3CCCO2)c1F` [Example 194, (S)-1-(1-(2-Aminobenzo[d]oxazol-5-yl)-3-fluoro-8,9-dihydro-7H-6-oxa-2,9a-diazabenzo[cd]azulen-4-yl)pyrrolidine-2-carb oxamide] are within 1.5-fold of each other in Ki: 0.038 nM for the first, 0.026 nM for the second.

Same assay, conditions: read-out: PI3Kα-(alpha) ATP (Ki) micromolar

`Nc1nc2cc(-c3nc4cc(Br)cc5c4n3CCCCO5)ccc2o1` [Example 172, 5-(4-bromo-7,8,9,10-tetrahydro-6-oxa-2,10a-diazacycloocta[cd]-inden-1-yl)benzo[d]oxazol-2-amine] gave a Ki of 0.501 nM.
